Data taken from patent publication US20080234188A1, “Antimicrobial Peptides” (The Hospital for Sick Children, priority 2001, published 2008).
Converted amounts (≈) assume the structure as drawn. Where a SMILES comes first, the peptide text is derived from it.

Assays:
S. aureus ATCC25923 = assay type: cell-based, Staphylococcus aureus
Source text: (§1) The bacterial strains used were E. coli C498, E. coli C500, Escherichia coli UB1005 and its antibiotic supersusceptible derivative DC2 (22); a clinical isolate of Staphylococcus epidermidis (C621); coryneform bacterial strain Corynebacterium xerosis (C875); and E. coli ATCC 25922, Staphylococcus aureus ATCC 25923, Enterococcus faecalis ATCC 29212, Bacillus subtilis ATCC 6633 and Pseudomonas aeruginosa ATCC 27853, all from American Type Culture Collection.
(§2) Peptide antibacterial activity was assessed by the method of R. Hancock et al. (Wu & Hancock (1999), J. Biol. Chem., v. 274, pp. 29-35). Test strains of bacteria from Mueller Hinton agar (MHA) plates were inoculated into 5 ml Mueller Hinton Broth (MHB) in tubes and grown overnight at 37° C. on a shaker (180 rpm). Serial dilutions of test peptides (at 10 times the required test concentrations) were made in 0.01% acetic acid, 0.2% BSA, in polypropylene or coated glass tubes as follows: the test peptide was (a) dissolved in distilled water at 20 times the required maximum concentration (enough final volume for all tests to be performed on a given day); (b) diluted into an equal volume of 0.02% acetic acid, 0.4% BSA to give 10 times the required maximum concentration; (c) serial doubling dilutions were performed in 0.01% acetic acid, 0.2% BSA to provide serial dilutions of peptides at 10 times the required test concentrations, e.g., 640, 320, 160, . . . 2.5 μg/ml. (No deleterious effects of long-term storage of peptides in these media have been detected). Overnight bacterial cultures were diluted in MHB to give 2−7×10^5 colony forming units/ml. Bacterial suspension (100 μl) was dispensed in each well; controls without bacteria were maintained in parallel. To each well was added 11 μl of 10× test peptide and plates were incubated at 37° C. for 18-24 hours, and checked again at 40-48 hours. Plates were read visually and at 600 nm in a microplate reader (Molecular Devices).
(§3) A further number of the peptides of the invention were tested for antimicrobial activity against a range of Gram-positive and Gram-negative bacteria by the assay described immediately before Example 1.

[1] = tested on: Corynebacterium xerosis (C875); assay type: cell-based
Procedure, shortened: (§4)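 Broth microdilution in Mueller Hinton Broth, inoculum 2−7×10^5 CFU/ml. Peptides serially doubled in 0.01% acetic acid, 0.2% BSA and added at 10× final concentration. Incubation 37° C for 18-24 h, rechecked at 40-48 h; growth read visually and at 600 nm.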

[2] = tested on: Staphylococcus epidermidis (C621); assay type: cell-based; conditions: C621
Procedure, shortened: as §4

E. faecalis ATCC29212 = assay type: cell-based, Enterococcus faecalis
Source text: as §1, §2, §3

E. coli DC2 = test: Assay of antibacterial activity (MIC), E. coli DC2; assay type: cell-based, Escherichia coli; conditions: Table 5A
Procedure, shortened: (§5)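 Peptides, diluted twofold in 0.01% acetic acid/0.2% BSA, were tested by the Hancock broth microdilution method against 2−7×10^5 CFU/ml in Mueller Hinton broth, 37° C, 18-24 h.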

B. subtilis ATCC6633 = assay type: cell-based, Bacillus subtilis
Source text: as §1, §2, §3

P. aeruginosa ATCC27853 = assay type: cell-based, Pseudomonas aeruginosa
Source text: as §1, §2, §3

[3] = tested on: C500: E. coli, antibiotic strain; assay type: cell-based; conditions: C500: , antibiotic strain
Source text: as §1, §2
(§6) were synthesized. The antibacterial activity of these peptides was determined against both Gram-positive bacteria ([…], Corynebacterium xerosis) and Gram-negative bacteria (various strains of E. coli). The results are shown in Table 2, along with the average hydrophobicity of each peptide, calculated as described herein.

[4] = tested on: C498: E. coli, wild type strain; assay type: cell-based; conditions: C498: , wild type strain
Source text: as §1, §2, §6

Rabbit RBC = assay type: cell-based
Description: (§7) Erythrocytes from heparinized rabbit or human blood were washed three times with phosphate-buffered saline (PBS; 5 mM phosphate buffer, 0.14 M saline, pH 7.3), and centrifuged at 1000×g for 15 min at 4° C. The erythrocytes were diluted with PBS to 4% (v/v). Dilutions of the peptides in PBS were plated in 100 μl volumes in microtitre plates (Costar 3790, polypropylene) together with 100μl of the erythrocyte suspension. PBS was used as control and 100% lysis was determined in 0.1% Triton X-100. The plates were incubated at 37° C. for 1 h and then centrifuged at 1000×g for 5 min. 100 μl aliquots of the supernatant were transferred to microtitre plates (Nunc, polystyrene), and the release of hemoglobin was monitored by measurement of the absorbance at 540 nm in a microplate reader. The results are shown in Table 6, for peptide concentrations of […]. With only one or two exceptions, little or no hemolysis was seen.

Human RBC = assay type: cell-based
Description: as §7

E. coli ATCC25922 = assay type: cell-based
Source text: as §1, §2, §3

E. coli UB1005 = assay type: cell-based, Escherichia coli; conditions: UB1005
Procedure, shortened: as §5

| Structure (SMILES) | MIC S. aureus ATCC25923 (S. aureus ATCC25923) | MIC C875 [1] | MIC C. xerosis C875 [1] | MIC S. epidermidis C621 [2] | MIC E. faecalis ATCC29212 (E. faecalis ATCC29212) | MIC E. coli DC2 (E. coli DC2) | MIC B. subtilis ATCC6633 (B. subtilis ATCC6633) | MIC P. aeruginosa ATCC27853 (P. aeruginosa ATCC27853) | MIC C500 [3] | MIC C498 [4] | Rabbit RBC (% lysis) 50 μM (Rabbit RBC) | Rabbit RBC (% lysis) 200 μM (Rabbit RBC) | Human RBC (% lysis) 50 μM (Human RBC) | Human RBC (% lysis) 200 μM (Human RBC) | MIC E. coli ATCC25922 (E. coli ATCC25922) | MIC E. coli UB1005 (E. coli UB1005) | MIC C621 [2] |
| --- | --- | --- | --- | --- | --- | --- | --- | --- | --- | --- | --- | --- | --- | --- | --- | --- | --- |
| C[C@H](NC(=O)[C@H](C)NC(=O)[C@H](Cc1ccccc1)NC(=O)[C@H](C)NC(=O)[C@H](C)NC(=O)[C@H](Cc1c[nH]c2ccccc12)NC(=O)[C@H](C)NC(=O)[C@H](C)NC(=O)[C@H](Cc1ccccc1)NC(=O)[C@H](C)NC(=O)[C@H](C)NC(=O)[C@H](CCCCN)NC(=O)[C@H](CCCCN)NC(=O)[C@H](CCCCN)NC(=O)[C@H](CCCCN)NC(=O)[C@H](CCCCN)NC(=O)[C@@H](N)CCCCN)C(N)=O [F17(K6), KKKKKKAAFAAWAAFAA-NH2] (H-KKKKKKAAFAAWAAFAA-NH2; N-terminus assumed) | >32 µM | 0.5 µM (≈ 0.918 µg/mL) | 0.5 µM (≈ 0.918 µg/mL) | 4 µM (≈ 7.34 µg/mL) | >32 µM | 0.5 µM (≈ 0.918 µg/mL) | 8 µM (≈ 14.7 µg/mL) | 16 µM (≈ 29.4 µg/mL) | <0.25 µM | 0.5 µM (≈ 0.918 µg/mL) | 0 % lysis | 1 % lysis | 0 % lysis | 0 % lysis | 8 µM (≈ 14.7 µg/mL) | 1 µM (≈ 1.84 µg/mL) |  |
| C[C@H](NC(=O)[C@H](C)NC(=O)[C@H](C)NC(=O)[C@H](Cc1ccccc1)NC(=O)[C@H](C)NC(=O)[C@H](CCCCN)NC(=O)[C@@H](N)CCCCN)C(=O)N[C@@H](C)C(=O)N[C@@H](C)C(=O)N[C@@H](Cc1ccccc1)C(=O)N[C@@H](C)C(=O)N[C@@H](C)C(=O)N[C@@H](Cc1c[nH]c2ccccc12)C(=O)N[C@@H](C)C(=O)N[C@@H](C)C(=O)N[C@@H](Cc1ccccc1)C(=O)N[C@@H](C)C(=O)N[C@@H](CCCCN)C(=O)N[C@@H](CCCCN)C(=O)N[C@@H](CCCCN)C(=O)N[C@@H](CCCCN)C(N)=O [Peptide F21] (H-KKAFAAAAAFAAWAAFAKKKK-NH2; N-terminus assumed) | >32 µM |  | 0.5 µM (≈ 1.1 µg/mL) | 8 µM (≈ 17.6 µg/mL) | >32 µM | 4 µM (≈ 8.78 µg/mL) | 2 µM (≈ 4.39 µg/mL) | >32 µM | 4 µM (≈ 8.78 µg/mL) | 8 µM (≈ 17.6 µg/mL) | 1 % lysis | 3 % lysis | 0 % lysis | 0 % lysis | 32 µM (≈ 70.3 µg/mL) | 8 µM (≈ 17.6 µg/mL) | 8 to 16 µM |
| C[C@H](NC(=O)[C@H](C)NC(=O)[C@H](CCCCN)NC(=O)[C@H](CCCCN)NC(=O)[C@@H](N)CCCCN)C(=O)N[C@@H](C)C(=O)N[C@@H](Cc1ccccc1)C(=O)N[C@@H](C)C(=O)N[C@@H](C)C(=O)N[C@@H](Cc1c[nH]c2ccccc12)C(=O)N[C@@H](C)C(=O)N[C@@H](C)C(=O)N[C@@H](Cc1ccccc1)C(=O)N[C@@H](C)C(=O)N[C@@H](CCCCN)C(=O)N[C@@H](CCCCN)C(=O)N[C@@H](CCCCN)C(N)=O [Peptide F17, KKKAAAFAAWAAFAKKK-NH2] (H-KKKAAAFAAWAAFAKKK-NH2; N-terminus assumed) | >32 µM |  | 4 µM (≈ 7.34 µg/mL) | >32 µM | >32 µM | 16 µM (≈ 29.4 µg/mL) | 16 µM (≈ 29.4 µg/mL) | >32 µM |  |  | 0 % lysis | 2 % lysis | 0 % lysis | 0 % lysis | >32 µM | 32 µM (≈ 58.7 µg/mL) |  |
| C[C@H](NC(=O)[C@H](C)NC(=O)[C@H](C)NC(=O)[C@H](CCCCN)NC(=O)[C@@H](N)CCCCN)C(=O)N[C@@H](C)C(=O)N[C@@H](Cc1ccccc1)C(=O)N[C@@H](C)C(=O)N[C@@H](C)C(=O)N[C@@H](Cc1ccccc1)C(=O)N[C@@H](C)C(=O)N[C@@H](C)C(=O)N[C@@H](Cc1c[nH]c2ccccc12)C(=O)N[C@@H](Cc1ccccc1)C(=O)N[C@@H](C)C(=O)N[C@@H](C)C(=O)N[C@@H](Cc1ccccc1)C(=O)N[C@@H](C)C(=O)N[C@@H](C)C(=O)N[C@@H](C)C(=O)N[C@@H](C)C(=O)N[C@@H](CCCCN)C(=O)N[C@@H](CCCCN)C(=O)N[C@@H](CCCCN)C(=O)N[C@@H](CCCCN)C(N)=O [[F(4)25]] (H-KKAAAAFAAFAAWFAAFAAAAKKKK-NH2; N-terminus assumed) | 32 µM (≈ 81.8 µg/mL) | 0.25 µM (≈ 0.639 µg/mL) |  | 4 µM (≈ 10.2 µg/mL) | >32 µM |  | 2 µM (≈ 5.11 µg/mL) | 8 µM (≈ 20.4 µg/mL) | 4 µM (≈ 10.2 µg/mL) | 16 µM (≈ 40.9 µg/mL) | 14 % lysis | 34 % lysis | 17 % lysis | 42 % lysis | 16 µM (≈ 40.9 µg/mL) | 8 µM (≈ 20.4 µg/mL) | 8 µM (≈ 20.4 µg/mL) |
